Assays:
[1] = biological target: PIM1 (Homo sapiens (Human), UniProt P11309); assay: biochemical; format: biochemical; settings: 20 pM PIM1, 1 μM FAM-peptide, 10 μM ATP, 90 minutes at room temperature; read-out: PIM1 LC3K (KI)
[2] = test system: MM1.S (multiple myeloma) cells; assay: In vitro cell proliferation, MM1.S multiple myeloma cells; format: cell-based; settings: Homo sapiens, MM1.S, 72 h, MM1.S cells, 72 hours, CELL TITER GLO; read-out: Prolif MM1S ATP (EC50);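 also: cells cultured in RPMI with 10% FBS and 2 mM L-Glutamine, seeded in 384-well plates, exposed to compound, cell viability measured by luminescence after CellTiter-Glo addition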
Description: (§1) BaF3 parental line was obtained from the DSMZ repository. […] Media for BaF3 parental line contained RPMI, 10% FBS, 2 mM L-Glutamine, 2 ng/mL mIL-3. Media for BaF3 PIM1 & 2 lines contained RPMI, 10% FBS, 2 mM L-Glutamine, 250 μg/mL. Media for MM1.S (multiple myeloma cells) line contained RPMI, 10% FBS, 2 mM L-Glutamine.
(§2) BaF3, a murine interleukin-3 dependent pro-B cell line, parental cells, BaF3 PIM1 cells, BaF3 PIM2 cells, and MM1.S (multiple myeloma) cells were seeded at 2 k/well, 5 k/well, 5 k/well, and 10 k/well respectively, in a 384-well plate, at 45 μL/well. Test compound was added at 5 μL/well. BaF3 cells (parental and transfected) were incubated overnight, while MM1.S cells were incubated for 72 hours at 37° C., 5% CO2. CELL TITER GLO® Reagent (Promega) was added at 50 μL/well, the plates were incubated for 30 minutes, and their luminescence read on an HT Analyst. IC50/EC50 values for the test compound were calculated.

[3] = test system: BaF3 PIM1 cells; assay: In vitro cell proliferation, BaF3 transfected with PIM1; format: cell-based, murine; settings: Mus musculus, BaF3, read-out: Prolif BaF3 PIM1 (IC50), BaF3 PIM1 cells, incubated overnight, CELL TITER GLO;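 also: murine IL-3-dependent pro-B BaF3 cells transfected with PIM1, compound exposure overnight at 37 °C under 5% CO2, viability read as luminescence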
Description: as §1, §2

[4] = test system: BaF3 parental cells; assay: In vitro cell proliferation, BaF3 parental line + IL3; format: cell-based, murine; settings: Mus musculus, BaF3, BaF3 parental, mIL-3, incubated overnight, CELL TITER GLO; read-out: Prolif BaF3 IL3 (IC50);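 also: BaF3 parental cells are murine IL-3 dependent pro-B cells grown with 2 ng/mL mIL-3, 384-well format, viability read by luminescence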

Sequence of PIM1 (P11309 whole entry): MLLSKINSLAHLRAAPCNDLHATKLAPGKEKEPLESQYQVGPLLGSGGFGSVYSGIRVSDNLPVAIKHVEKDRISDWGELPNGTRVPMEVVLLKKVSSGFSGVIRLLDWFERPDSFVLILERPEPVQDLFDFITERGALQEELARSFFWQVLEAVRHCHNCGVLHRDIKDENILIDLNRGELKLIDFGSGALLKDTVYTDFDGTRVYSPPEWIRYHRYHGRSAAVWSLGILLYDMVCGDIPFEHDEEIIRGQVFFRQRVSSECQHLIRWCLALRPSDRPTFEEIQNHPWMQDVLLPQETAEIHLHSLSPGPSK

Row | Ki [1] [nM] | EC50 [2] [nM] | IC50 [3] [nM] | Compound | IC50 [4] [nM]
1 | 0.034 | 937 | 294 | Cn1ncc(NC(=O)c2csc(-c3c(F)ccc(C4CC4)c3F)n2)c1[C@@H]1CC[C@@H](N)[C@H](F)CO1 [Example 363, N-(5-((2S,5R,6S)-5-amino-6-fluorooxepan-2-yl)-1-methyl-1H-pyrazol-4-yl)-2-(3-cyclopropyl-2,6-difluorophenyl)thiazole-4-carboxamide] | 4500
2 | 0.039 | 1100 | 208 | Cn1ncc(NC(=O)c2csc(-c3c(F)cc(F)cc3F)n2)c1[C@@H]1CC[C@@H](N)[C@H](F)CO1 [Example 364, N-(5-((2S,5R,6S)-5-amino-6-fluorooxepan-2-yl)-1-methyl-1H-pyrazol-4-yl)-2-(2,4,6-trifluorophenyl)thiazole-4-carboxamide] | 20200
3 | 0.061 | 5400 | 245 | CC(C)C(=O)c1cc(F)c(-c2nc(C(=O)Nc3cnn(C)c3[C@@H]3CC[C@@H](N)[C@H](F)CO3)cs2)c(F)c1 [Example 367, N-(5-((2S,5R,6S)-5-amino-6-fluorooxepan-2-yl)-1-methyl-1H-pyrazol-4-yl)-2-(2,6-difluoro-4-isobutyrylphenyl)thiazole-4-carboxamide] | 24000
4 | 0.031 | 4200 | 68.6 | Cn1ncc(NC(=O)c2csc(-c3c(F)ccc(C(F)F)c3F)n2)c1[C@@H]1CC[C@@H](N)[C@H](F)CO1 [Example 377, N-[5-[(2S,5R,6S)-5-amino-6-fluoro-oxepan-2-yl]-1-methyl-pyrazol-4-yl]-2-[3-(difluoromethyl)-2,6-difluoro-phenyl]thiazole-4-carboxamide] | 9900

Second part, the molecule before the results:

Row | Compound | Ki [1] [nM] | EC50 [2] [nM] | IC50 [3] [nM] | IC50 [4] [nM]
5 | COc1cccc(-c2nc(C(=O)Nc3cnn(C)c3[C@@H]3CC[C@@H](N)[C@H](F)CO3)cs2)c1F [Example 362, N-(5-((2S,5R,6S)-5-amino-6-fluorooxepan-2-yl)-1-methyl-1H-pyrazol-4-yl)-2-(2-fluoro-3-methoxyphenyl)thiazole-4-carboxamide] | 0.036 | 336 | 50.7 | 3100
6 | COc1ccc(F)c(-c2nc(C(=O)Nc3cnn(C)c3[C@@H]3CC[C@@H](N)[C@H](OC)CO3)cs2)c1F [Example 368, N-(5-((2S,5R,6S)-5-amino-6-methoxyoxepan-2-yl)-1-methyl-1H-pyrazol-4-yl)-2-(2,6-difluoro-3-methoxyphenyl)thiazole-4-carboxamide] | 0.03 | 2400 | 100 | 1900
7 | Cc1sc(-c2c(F)cccc2F)nc1C(=O)Nc1cnn(C)c1[C@@H]1CC[C@@H](N)[C@H](F)CO1 [Example 370, N-[5-[(2S,5R,6S)-5-amino-6-fluoro-oxepan-2-yl]-1-methyl-pyrazol-4-yl]-2-(2,6-difluorophenyl)-5-methyl-thiazole-4-carboxamide] | 0.382 | 1800 | 675 | 6400
8 | Cc1[nH]nc(-c2nc(C(=O)Nc3cnn(C)c3[C@@H]3CC[C@@H](N)[C@H](F)CO3)cs2)c1C [Example 372, N-(5-((2S,5R,6S)-5-amino-6-fluorooxepan-2-yl)-1-methyl-1H-pyrazol-4-yl)-2-(4,5-dimethyl-1H-pyrazol-3-yl)thiazole-4-carboxamide] | 0.064 | 1600 | 602 | 20500
9 | Cn1ncc(NC(=O)c2csc(-c3n[nH]c4c3CCC(C)(C)C4)n2)c1[C@@H]1CC[C@@H](N)[C@H](F)CO1 [Example 373, N-(5-((2S,5R,6S)-5-amino-6-fluorooxepan-2-yl)-1-methyl-1H-pyrazol-4-yl)-2-(6,6-dimethyl-4,5,6,7-tetrahydro-1H-indazol-3-yl)thiazole-4-carboxamide] | 0.009 | 3400 | 101 | 8600

Source: US9328106B2, “Cyclic ether pyrazol-4-yl-heterocyclyl-carboxamide compounds and methods of use” (Genentech, Inc., priority 2012, dated 2016)
